Measurements from patent publication US20150099270A1, “METHOD OF SCREENING PHARMACEUTICALS FOR DRUG INTERACTIONS AND NEPHROTOXICITY” (priority 2013, published 2015).

Key:
HK-2 cells = test: PAH metabolism experiment in HK-2 cells (acetyl-PAH formation quantified by HPLC); type: in vitro ADME, human
Method: Acetyl-PAH was quantified by HPLC using a Waters 2690 Separation Module. […] The runtime was 25 minutes for all samples.
HK2 cells were grown in 15 ml of Dulbecco's Modified Eagle Medium (DMEM)/F12 media with 10% Fetal Bovine Serum (FBS) and incubated at 37° C. with 5% CO2. After 5 days of culture, each 75 cm^2 flask of cells was transferred to 2 mls of the culture media and incubated with 200 μg/ml of PAH except for the negative control where no PAH was added. Cells were incubated for 4, 8 and 18 hours each (in triplicate) with or without PAH (control). Cells post incubation were lysed via sonication for 1 minute, then centrifuged at 14,000 RPM for 10 minutes. The supernatant was extracted and acetyl-PAH was quantified by HPLC. After 5 days of culture, the HK2 cell monolayers reached confluence (FIG. 1).
• 1. HK2 cells were grown in 15 ml of Dulbecco's Modified Eagle Medium (DMEM)/F12 media with 10% Fetal Bovine Serum (FBS) and incubated at 37° C. with 5% CO2. […]
Acetyl-PAH was quantified by HPLC using a Waters 2690 Separation Module. […] Quantification of acetyl-PAH formation was determined by calculating the area under the curve for each sample time-point, and determining the cumulative appearance over the entire incubation period (up to 18 hours).

[1] = dogs with azotemia, p=0.025; cited from earlier work
[2] = human, in vivo
Source text: The purpose of this study is to quantify plasma and urinary acetyl-PAH as a measure of tubular function, in the presence of simultaneous measurement of GFR (iothalamate clearance) in healthy subjects. […] Subjects receiving drugs known to interfere with tubular secretion based on a current review of available literature, or a history of known allergic or adverse reactions to diagnostic iodine containing compounds including iothalamate, or PAH were excluded. Subjects with preexisting liver disease (including hepatitis), increased INR, liver transaminases (AST/ALT), bilirubin, serum albumin<3.0 g/dL. Iothalamate (Conray®, Mallinkrodt), and PAH (Merck) infusions were prepared on the morning of the study visit.
On the study day, each subject reported to the General Clinical Research Unit (GCRC) by 8:00 AM on study visit days. A 6-mL blood sample was be obtained for biochemistries (BUN, serum creatinine) and a spot urine sample was obtained for protein:creatinine ratio. Vital signs (heart rate, blood pressure, respiratory rate) were recorded half-hourly throughout each study visit. Subjects had intravenous catheters inserted into forearm veins of each arm for blood collection and intravenous infusion of iothalamate and PAH. […]
Throughout the study, all blood samples were collected in heparinized (green top) tubes, placed on ice immediately, centrifuged within 15 minutes (4,000 RPM), split into 2 plasma aliquots and frozen at −20° C. until analyzed. […] Urine was be placed on ice immediately after collection, and three 8 mL aliquots were frozen at −20° C. until analyzed. The total volume of urine was measured for each collection interval. A 5 mL aliquot of each IV infusate was collected and frozen at −20° C. until analyzed.
Iothalamate and PAH: Iothalamate and PAH concentrations in plasma and urine will be determined using an HPLC assay method developed in our laboratory. […] Separation is achieved using a C18 column, and effluent is monitored at a wavelength of 254 ηm. […]

Nc1ccc(C(=O)NCC(=O)O)cc1 [PAH, Para-aminohippuric acid]
metabolism of PAH to acetyl-PAH (HK-2 cells; HK2 cells, 200 μg/ml PAH, 4, 8 and 18 hours): time dependent fashion | renal extraction [1]: 0.57 | Rsec (total rate of tubular secretion) [2]: 382 ± 154 mL/min

CC(=O)Nc1ccc(C(=O)NCC(=O)O)cc1 [acetyl-PAH, 2-[(4-acetamidobenzoyl)amino]acetic acid]
mean (±SD) naPAH metabolite concentration (HK-2 cells; HK-2 cells incubated with PAH, HPLC): increased over time | Rsec (total rate of tubular secretion) [2]: 581 ± 191 mL/min | appearance of acetyl-PAH metabolite in urine and plasma [2]: appears in high quantities in the urine and plasma

CC[N+](CC)(CC)CC [TEA, tetraethylammonium]
renal extraction [1]: 0.80
